Data from patent US20200164060A1, “HERPES SIMPLEX VIRUS VACCINE EPITOPES SP[…] TISSUE RESIDENT MEMORY T CELLS” (priority 2017, published 2020).

System: biopsy-derived HSV-2-specific CD4 TRM
Test: single peptide test with biopsy-derived HSV-2-specific CD4 TRM, IFN-γ secretion
Type: cell-based, human
Details: peptide at 1 μg/ml; HLA-expressing cells as antigen presenting cells; media control gave no response
Source text: FIG. 14. CD4 epitopes: peptide pools→singles. For this example, biopsy-derived cells recognize Cos7 co-transfected with the combination of a subject HLA molecule and HSV-2 UL19 gene. A rectangular matrix of peptides covering UL19 was created and row and column pools were made as indicated on the X axis of the top graph. Only one row pool and one column pool gave a positive proliferative response using the assay described in FIG. 13. The peptide at the intersection of the positive row and column pools, UL19 305-319 (SEQ ID NO: 14), was tested at 1 μg/ml using HLA-expressing cells as antigen presenting cells and biopsy-derived HSV-2-specific CD4 TRM as responder cells. The readout was IFN-γ secretion, as shown in the bottom graphs.
The technology used to determine the fine peptide specificity of biopsy-derived CD4 T cells that recognize HSV-2 has been described in Johnston, et al., Journal of Virology 88, 4921-4931 (2014). In brief, every HSV-2 was expressed. […] T cell activation was detected by proliferation or IFN-γ secretion assays. Once the identity of reactive HSV-2 proteins were determined, peptides from within that protein were tested in repeat assays as described in Johnston, et al., Journal of Virology 88, 4921-4931, (2014). In some cases, dose-response assays were conducted as described in Jing, et al., Journal of Immunology 196, 2205-2218, (2016). […]

For TYGEMVLNGANLVTA [SEQ ID NO: 14], the “IFN-γ response from the biopsy cells” value was “elicited an IFN-γ response”.
